Source: patent US9115134B2, “6-triazolopyridazine sulfanyl benzothiazole derivatives as MET inhibitors” (SANOFI, priority 2007, dated 2015)

Legend:
[1] = tested on: HCT116 cells, MKN45 cells; assay: Test C: Measurement of cell proliferation by 14C-thymidine pulse; type: cell-based; details: 14C-thymidine incorporation, 96 h of treatment; cell line not given
Summary of the method: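 HCT116 (2500/well, DMEM) and MKN45 (7500/well, RPMI), both with 10% FCS, treated after 4 h with 10 concentrations from 10 000 to 0.3 nM (3-fold, duplicate). ¹⁴C-thymidine (0.1 μCi/well) added at 72 h; incorporation read after 24 h pulse, 96 h total treatment.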

MET [2] = biological target: T1, MET (Homo sapiens, UniProt P08581); assay: Test B: Inhibition of the autophosphorylation of MET; ELISA technique (pppY1230,1234,1235) in MKN45 cells; type: cell-based; parameters: Seed MKN45 cells into 96-well plates (Cell coat BD polylysine) at 20 000 cells/well; endogenous in cells; host or cells: MKN45 cells; details: 1 h treatment, PhosphoMET ELISA
Summary of the method: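 Adhered cells treated 1 h with six compound concentrations in duplicate, final 10 000 to 30 nM, against DMSO controls. Cells then lysed at 4° C for 30 min in Triton/SDS/deoxycholate buffer with phosphatase inhibitors. Phospho-MET measured by sandwich ELISA with anti-phospho MET antibody and HRP detection, absorbance at 450 nm.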
Target sequence in this assay (P08581 25-1390): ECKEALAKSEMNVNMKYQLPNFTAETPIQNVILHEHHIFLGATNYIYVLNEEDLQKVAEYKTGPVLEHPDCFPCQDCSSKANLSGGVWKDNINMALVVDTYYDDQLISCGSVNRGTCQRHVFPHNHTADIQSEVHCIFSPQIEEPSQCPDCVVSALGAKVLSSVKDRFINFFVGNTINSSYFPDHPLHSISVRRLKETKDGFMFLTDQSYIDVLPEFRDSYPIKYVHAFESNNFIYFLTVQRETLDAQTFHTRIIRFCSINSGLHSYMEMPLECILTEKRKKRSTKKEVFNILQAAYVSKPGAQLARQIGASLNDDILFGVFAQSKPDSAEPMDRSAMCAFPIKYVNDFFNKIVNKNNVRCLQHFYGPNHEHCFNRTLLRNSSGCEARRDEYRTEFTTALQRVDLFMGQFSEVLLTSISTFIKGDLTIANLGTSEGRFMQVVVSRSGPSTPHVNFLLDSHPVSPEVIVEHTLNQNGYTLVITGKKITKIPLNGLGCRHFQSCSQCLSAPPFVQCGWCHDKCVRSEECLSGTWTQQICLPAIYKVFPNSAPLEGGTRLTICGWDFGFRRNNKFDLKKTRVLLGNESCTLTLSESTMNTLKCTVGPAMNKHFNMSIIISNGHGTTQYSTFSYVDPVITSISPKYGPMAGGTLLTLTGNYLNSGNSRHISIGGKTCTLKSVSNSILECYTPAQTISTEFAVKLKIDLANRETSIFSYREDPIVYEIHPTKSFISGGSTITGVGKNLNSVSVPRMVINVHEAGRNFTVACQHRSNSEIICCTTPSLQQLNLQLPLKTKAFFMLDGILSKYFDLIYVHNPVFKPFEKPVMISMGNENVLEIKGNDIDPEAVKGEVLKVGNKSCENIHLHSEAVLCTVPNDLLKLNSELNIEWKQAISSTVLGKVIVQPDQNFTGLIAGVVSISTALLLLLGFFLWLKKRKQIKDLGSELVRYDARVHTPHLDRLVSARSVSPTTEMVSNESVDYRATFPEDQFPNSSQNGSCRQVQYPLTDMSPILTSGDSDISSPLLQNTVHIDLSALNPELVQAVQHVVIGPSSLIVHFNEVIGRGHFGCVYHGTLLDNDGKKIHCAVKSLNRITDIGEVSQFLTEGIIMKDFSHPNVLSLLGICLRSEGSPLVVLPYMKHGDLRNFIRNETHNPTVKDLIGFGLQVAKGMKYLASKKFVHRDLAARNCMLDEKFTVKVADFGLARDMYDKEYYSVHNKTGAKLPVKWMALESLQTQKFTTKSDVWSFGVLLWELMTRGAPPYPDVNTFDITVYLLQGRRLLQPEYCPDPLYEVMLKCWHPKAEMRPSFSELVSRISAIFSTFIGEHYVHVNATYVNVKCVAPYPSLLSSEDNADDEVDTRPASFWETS

MET [3] = biological target: T1, MET; assay: Test A: HTRF MET assay in 96-well format; type: biochemical; parameters: The His-Tev-MET (956-1390) recombinant DNA in pFastBac (Invitrogen) is transfected into insect cells; His tag (N, cleaved yes); TEV cleavage site (N); made in house; host or cells: SF21 insect cells (baculovirus, pFastBac); details: MET 5 nM, 10 μM ATP
Summary of the method: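 Purified human MET cytoplasmic domain (956-1390, His tag cleaved), 5 nM, with compound (0.17 nM–10 μM, 3% DMSO) in MOPS pH 7.4; 1 μg/ml poly-(GAT), 10 μM ATP, 5 mM MgCl2, 10 min at ambient temperature. HTRF read-out (streptavidin-XL/anti-pTyr Eu cryptate, 2 h); % inhibition from 665/620 ratios.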
Target sequence in this assay (P08581 956-1390): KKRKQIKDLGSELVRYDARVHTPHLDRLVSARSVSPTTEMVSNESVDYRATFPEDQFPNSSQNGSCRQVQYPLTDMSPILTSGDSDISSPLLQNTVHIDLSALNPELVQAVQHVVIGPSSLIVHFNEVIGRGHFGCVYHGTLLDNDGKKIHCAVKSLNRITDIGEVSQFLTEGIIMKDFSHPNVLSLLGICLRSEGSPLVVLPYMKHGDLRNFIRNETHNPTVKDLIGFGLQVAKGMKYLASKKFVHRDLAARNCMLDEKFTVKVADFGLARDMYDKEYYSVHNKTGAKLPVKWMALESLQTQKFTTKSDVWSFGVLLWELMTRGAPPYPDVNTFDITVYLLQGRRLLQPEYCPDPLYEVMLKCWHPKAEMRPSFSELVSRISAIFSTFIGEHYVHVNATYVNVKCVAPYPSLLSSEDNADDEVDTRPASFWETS

SMILES | IC50 [1] [nM] | IC50 (MET [2]) [nM] | IC50 (MET [3]) [nM]
COC(=O)Nc1nc2ccc(Sc3nnc4ccc(-c5ccc(F)cc5)nn34)cc2[nH]1 [Example 4, Methyl (6-{[6-(4-fluorophenyl)[1,2,4]triazolo[4,3-b]pyridazin-3-yl]sulphanyl}-1H-benzimidazol-2-yl)carbamate] | < 1000 | < 100 | < 100
Cn1cc(-c2ccc3nnc(Sc4ccc5nc(N)sc5c4)n3n2)cn1 [Example 43, 6-{[6-(1-Methyl-1H-pyrazol-4-yl)[1,2,4]triazolo[4,3-b]pyridazin-3-yl]sulphanyl}-1,3-benzothiazol-2-amine] | < 1000 | < 100 | < 100
CN1CCN(CCNC(=O)Nc2nc3ccc(Sc4nnc5n4N=C(c4ccc(F)cc4)CC5)cc3s2)CC1 [Example 13, 1-(6-{[6-(4-Fluorophenyl)-7,8-dihydro[1,2,4]triazolo[4,3-b]pyridazin-3-yl]sulphanyl}-1,3-benzothiazol-2-yl)-3-[2-(4-methylpiperazin-1-yl)ethyl]urea] | < 1000 | < 100 | < 100
CCOc1ccc2nnc(Sc3ccc4nc(N)sc4c3)n2n1 [Example 50, 6-[(6-Ethoxy[1,2,4]triazolo[4,3-b]pyridazin-3-yl)sulphanyl]-1,3-benzothiazol-2-amine] | < 1000 | 100 to 500 | < 100
Nc1nc2ccc(Sc3nnc4ccc(NC5CCCCC5)nn34)cc2s1 [Example 62, 3-[(2-Amino-1,3-benzothiazol-6-yl)sulphanyl]-N-cyclohexyl[1,2,4]triazolo[4,3-b]pyridazin-6-amine] | < 1000 | < 100 | < 100
COCCNc1ccc2nnc(Sc3ccc4nc(NC(=O)OC(C)(C)C)sc4c3)n2n1 [Example 24, 1,1-Dimethylethyl[6-({6-[(2-methoxyethyl)amino][1,2,4]triazolo[4,3-b]pyridazin-3-yl}sulphanyl)-1,3-benzothiazol-2-yl]carbamate] | < 1000 | < 100 | < 100
COCCNc1ccc2nnc(Sc3ccc4nc(NC(=O)C5CC5)sc4c3)n2n1 [Example 40, N-[6-({6-[(2-Methoxyethyl)amino][1,2,4]triazolo[4,3-b]pyridazin-3-yl}sulphanyl)-1,3-benzothiazol-2-yl]cyclopropanecarboxamide] | < 1000 | < 100 | < 100
CC(=O)Nc1nc2ccc(Sc3nnc4ccc(N5CCOCC5)nn34)cc2s1 [Example 18, N-(6-{[6-(Morpholin-4-yl)[1,2,4]triazolo[4,3-b]pyridazin-3-yl]sulphanyl}-1,3-benzothiazol-2-yl)acetamide] | < 1000 | 100 to 500 | < 100
Nc1nc2ccc(Sc3nnc4ccc(-c5ccc(F)cc5)nn34)cc2[nH]1 [Example 7, 6-{[6-(4-Fluorophenyl)[1,2,4]triazolo[4,3-b]pyridazin-3-yl]sulphanyl}-1H-benzimidazol-2-amine] | < 1000 | 100 to 500 | < 100
Nc1nc2ccc(Sc3nnc4n3N=C(c3cccc(F)c3)CC4)cc2s1 [Example 54, 6-{[6-(3-Fluorophenyl)-7,8-dihydro[1,2,4]triazolo[4,3-b]pyridazin-3-yl]sulphanyl}-1,3-benzothiazol-2-amine] | < 1000 | 100 to 500 | < 100
CC(C)(C)OC(=O)Nc1nc2ccc(Sc3nnc4ccc(OCC(O)CCCl)nn34)cc2s1 (stereo not drawn) [Example 51, 2-Methylpropan-2-yl(6-{[6-(4-chloro-2-hydroxybutoxy)[1,2,4]triazolo[4,3-b]pyridazin-3-yl]sulphanyl}-1,3-benzothiazol-2-yl)carbamate] | < 1000 | < 100 | < 100
CC(=O)Nc1nc2ccc(Sc3nnc4ccc(N5CCN(C)CC5)nn34)cc2s1 [Example 25, N-(6-{[6-(4-Methylpiperazin-1-yl)[1,2,4]triazolo[4,3-b]pyridazin-3-yl]sulphanyl}-1,3-benzothiazol-2-yl)acetamide] | < 1000 | 100 to 500 | < 100
COCCCOC(=O)Nc1nc2ccc(Sc3nnc4ccc(NCCOC)nn34)cc2s1 [Example 47, 3-Methoxypropyl[6-({6-[(2-methoxyethyl)amino][1,2,4]triazolo[4,3-b]pyridazin-3-yl}sulphanyl)-1,3-benzothiazol-2-yl]carbamate] | < 1000 | 100 to 500 | < 100
COC(=O)Nc1nc2ccc(Sc3nnc4n3N=C(c3ccc(F)cc3)CC4)cc2[nH]1 [Example 5, Methyl (6-{[6-(4-fluorophenyl)-7,8-dihydro[1,2,4]triazolo[4,3-b]pyridazin-3-yl]sulphanyl}-1H-benzimidazol-2-yl)carbamate] | < 1000 | 100 to 500 | < 100

Other lines, results leading:

IC50 [1] [nM] | IC50 (MET [2]) [nM] | IC50 (MET [3]) [nM] | SMILES
< 1000 | < 100 | < 100 | Nc1nc2ccc(Sc3nnc4ccc(-c5ccc(F)cc5)nn34)cc2s1 [Example 3, 6-{[6-(4-Fluorophenyl)[1,2,4]triazolo[4,3-b]pyridazin-3-yl]sulphanyl}-1,3-benzothiazol-2-amine]
< 1000 | < 100 | < 100 | O=C(Nc1nc2ccc(Sc3nnc4ccc(-c5ccc(F)cc5)nn34)cc2s1)C1CC1 [Example 60, N-(6-{[6-(4-Fluorophenyl)[1,2,4]triazolo[4,3-b]pyridazin-3-yl]sulphanyl}-1,3-benzothiazol-2-yl)cyclopropanecarboxamide]
< 1000 | 100 to 500 | < 100 | CC(=O)Nc1ccc2nnc(Sc3ccc4nc(NC(=O)NCCN5CCOCC5)sc4c3)n2n1 [Example 31, N-(3-{[2-({[2-(Morpholin-4-yl)ethyl]carbamoyl}amino)-1,3-benzothiazol-6-yl]sulphanyl}[1,2,4]triazolo[4,3-b]pyridazin-6-yl)acetamide]
< 1000 | < 100 | < 100 | O=C(NCCN1CCOCC1)Nc1nc2ccc(Sc3nnc4ccc(-c5ccc(F)cc5)nn34)cc2[nH]1 [Example 6, 1-(6-{[6-(4-Fluorophenyl)[1,2,4]triazolo[4,3-b]pyridazin-3-yl]sulphanyl}-1H-benzimidazol-2-yl)-3-(2-morpholin-4-ylethyl)urea]
< 1000 | < 100 | < 100 | Fc1ccc(-c2ccc3nnc(Sc4ccc5nc(NCCN6CCOCC6)sc5c4)n3n2)cc1 [Example 30, 6-{[6-(4-Fluorophenyl)[1,2,4]triazolo[4,3-b]pyridazin-3-yl]sulphanyl}-N-[2-(morpholin-4-yl)ethyl]-1,3-benzothiazol-2-amine]
< 1000 | < 100 | < 100 | COC(=O)Nc1nc2ccc(Sc3nnc4ccc(-c5ccc(F)cc5)nn34)cc2s1 [Example 1, Methyl (6-{[6-(4-fluorophenyl)[1,2,4]triazolo[4,3-b]pyridazin-3-yl]sulphanyl}-1,3-benzothiazol-2-yl)carbamate]
< 1000 | < 100 | < 100 | CN1CCN(CCNC(=O)Nc2nc3ccc(Sc4nnc5ccc(-c6ccc(F)cc6)nn45)cc3s2)CC1 [Example 14, 1-(6-{[6-(4-Fluorophenyl)[1,2,4]triazolo[4,3-b]pyridazin-3-yl]sulphanyl}-1,3-benzothiazol-2-yl)-3-[2-(4-methylpiperazin-1-yl)ethyl]urea]
< 1000 | < 100 | < 100 | O=C(NCCN1CCOCC1)Nc1nc2ccc(Sc3nnc4n3N=C(c3ccc(F)cc3)CC4)cc2s1 [Example 44, 1-(6-{[6-(4-Fluorophenyl)-7,8-dihydro-[1,2,4]triazolo[4,3-b]pyridazin-3-yl]sulphanyl}-1,3-benzothiazol-2-yl)-3-[2-(morpholin-4-yl)ethyl]urea]
< 1000 | < 100 | < 100 | O=C(Nc1nc2ccc(Sc3nnc4ccc(-c5ccc(F)cc5)nn34)cc2s1)OCCN1CCOCC1 [Example 12, 2-Morpholin-4-ylethyl (6-{[6-(4-fluorophenyl)[1,2,4]triazolo[4,3-b]pyridazin-3-yl]sulphanyl}-1,3-benzothiazol-2-yl)carbamate]
< 1000 | < 100 | < 100 | O=C(NCCN1CCOCC1)Nc1nc2ccc(Sc3nnc4ccc(-c5cccc(F)c5)nn34)cc2s1 [Example 64, 1-(6-{[6-(3-Fluorophenyl)[1,2,4]triazolo[4,3-b]pyridazin-3-yl]sulphanyl}-1,3-benzothiazol-2-yl)-3-[2-(morpholin-4-yl)ethyl]urea]
